Assay results from patent publication US12577247B2 (BUGWORKS RESEARCH, INC., priority 2021, dated 2026).

Assays:
A2B receptor = molecular target: T1, A2B receptor (Homo sapiens, UniProt P29275); experiment: A2bR antagonism IC50, cAMP TR-FRET (Lance Ultra) in HEK-293 cells, NECA as agonist; assay type: cell-based; design: host or cells: HEK-293; conditions: HEK-293 cells expressing A2B receptor; agonist NECA 30 nM (EC90); inhibition of cAMP
T1 sequence (P29275 1-332): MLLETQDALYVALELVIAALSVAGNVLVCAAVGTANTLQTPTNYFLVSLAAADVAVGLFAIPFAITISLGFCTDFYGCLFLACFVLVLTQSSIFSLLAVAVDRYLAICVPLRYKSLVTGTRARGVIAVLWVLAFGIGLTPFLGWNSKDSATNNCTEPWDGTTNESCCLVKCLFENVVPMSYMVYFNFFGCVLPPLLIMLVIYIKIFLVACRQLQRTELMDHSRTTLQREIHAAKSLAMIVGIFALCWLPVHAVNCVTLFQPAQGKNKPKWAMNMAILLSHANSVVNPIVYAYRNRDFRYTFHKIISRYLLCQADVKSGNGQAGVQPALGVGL
Description: Adenosine A2A receptors and Adenosine A2B receptors induce the production of cAMP when activated/stimulated by an agonist like adenosine or 5′-(N-Ethylcarboxamido) adenosine (NECA). A Time-Resolved Fluorescence Energy Transfer (TR-FRET) assay was used to show the inhibition of this cAMP production in HEK cells upon treatment with compounds of the Formula I of the present disclosure.
HEK-293 cells expressing A2A receptor (#ES-011-C) or A2B receptor (#ES 013-C) were obtained from PerkinElmer. Cells were maintained in DMEM medium supplemented with 10% FBS and 200 μg/mL of G418 at 37° C. and 5% CO2. The cells were cultured in antibiotic free medium for a period of 16-20 hours prior to the assay. All subsequent steps of the assay are performed at room temperature (22-24° C.). The cells were harvested at about 80% confluency by gentle flushing with PBS, recovered by centrifugation and resuspended in stimulation buffer at the concentration of 5.0×10^6 cells/mL.
The assays were conducted in a stimulation buffer containing 1×DMEM, 5 mM HEPES, 0.1% BSA stabilizer and 20-30 μM Rolipram. Serial dilutions of compounds were made in stimulation buffer to achieve a final concentration of high micromolar (10 μM to 0.08 nM) in the reaction volume of 10 μL. The total reaction volume was 10 μL (5 μL of cells, 2.5 μL of antagonist and 2.5 μL of agonist). The stimulation was ended, and the reaction completed by adding 5 μL of 4× Eu-cAMP tracer working solution and 5 μL of 4× ULight-anti-cAMP working solution. The TR-FRET signal was measured after 1-hour incubation using a Tecan M1000 reader.

[1] = system: CT-26 syngeneic colon cancer; experiment: In vivo efficacy on CT-26 syngeneic colon cancer mice model; design: species or system Balb/c mice; conditions: PO, TID; for Decrease in tumor volume: by day 22
Method: CT-26 syngeneic model of colon cancer in BALB/c is an established model and has been reported widely in literature for screening of compounds in efficacy studies for immune-oncology therapeutics.
CT-26 Cell line expansion and sub-culturing: CT26 (CT26·WT, ATCC® CRL-2638) is an N-nitroso-N-methylurethane-(NNMU) induced, undifferentiated colon carcinoma cell line derived from Mus musculus, mouse colon tissue. Cells were cultured using standard techniques in RPMI 1640 with 10% FBS and 1× penicillin—streptomycin solution at 37° C. with 5% CO2 in a suitable incubator. Cell density was determined using a hemocytometer upon harvest and the cells were prepared in 100 μL of cold PBS in a microfuge tube and kept on ice until use for inoculations.
Mice: All animal studies were conducted in accordance with an Institutional Animal Care and Use Committee. 6- to 8-week-old Balb/c mice were typically housed in sterilized suspended standard, polysulfone cages, with stainless steel top grills having facilities for holding pelleted food and drinking water in polycarbonate bottles with stainless steel sipper tubes and environment enrichment objects in the vivarium for two weeks prior to tumor cell injection. The same conditions were maintained throughout the subsequent tumor engraftment and treatment evaluation.
Tumor engraftment: All animals were inoculated with 5×10^5/mouse in 100 μL subcutaneously in the lower right flank. Tumor growth was monitored twice a week from Day 4 onwards using a calibrated digital vernier caliper and the tumor volume calculated using the formula, tumor volume (mm3)=length×(width) 2/2. Once tumor volume reaches 100±50 mm^3 on Day 12, all animals were randomized into respective treatment groups as per study plan. See Table 1 for details regarding the setup and dosing of animals. Tumor volume at the time of randomization was 90 mm^3 There was no statistical significance in tumor volume at the time of treatment initiation. Post randomization, animals were treated with the test substance for 21 days. The average tumor volume/size in the treatment group allowed to reach up to 2500 mm^3, beyond this tumor size the animals to be sacrificed humanely as per general guidelines.
Formulation and administration: Formulations were prepared with the components listed in Table 11 every day and mixed well before dosing each time and administered orally. The anti PD-1 antibody was administered via the intraperitoneal route.
Data is represented as Mean±SEM n=4-10, *p<0.05 Vs Vehicle, One-Way ANOVA followed by Dunnett's multiple comparison test. […] Significant decrease in tumor volume was observed on Day 18 and Day 22 compared to vehicle treatment.

[2] = Pharmacokinetic study in mice; assay type: in vivo, CD1 mice
Granzyme B = experiment: Biomarker (Granzyme-B) FACS analysis in tumour samples from the efficacy study; assay type: in vivo, Balb/c mice; conditions: 30 mg/kg TID, Day 22, vs vehicle and anti-PD1 antibody groups
Method: On Day 22, the animals from the efficacy study above were euthanized by overdose of gaseous anaesthesia and tumor samples were collected and their weights were recorded before evaluating for Granzyme-B by FACs analysis.
Approximately 100 mg of tissue samples were homogenized, and the single cell suspensions were fixed and permeabilized using Miltenyi Biotec and BD kit-based reagents before staining with anti-Granzyme-B antibodies. Cells were subjected to FACS analysis while using isotype controls to ensure the specific binding of antibody and unstained cells as a negative control. The result obtained were analyzed using Flow Jo software and represented in FIG. 2.

Row | Compound | IC50 (A2B receptor) [nM] | Change in tumor volume ([1]; 1 mg/kg, vs vehicle) | Decrease in tumor volume ([1]; 3 mg/kg) [%] | Decrease in tumor volume ([1]; 10 mg/kg) [%] | Decrease in tumor volume ([1]; 30 mg/kg) [%] | Exposure after subcutaneous (SC) dose relative to oral route [2] [×] | Cmax ([2]; CD1, mouse, plasma, sc, 10 mg/kg, s.c, 10 mg/kg, read-out: Cmax (head Co*/)) [ng/mL] | Tmax ([2]; CD1, mouse, plasma, sc, 10 mg/kg, s.c, 10 mg/kg, read-out: Tmax (head Tma)) [min] | Tumor Granzyme B expression (Granzyme B)
1 | Cc1cccc(CCNc2nc3c(C)c(C)nn3c(N)c2C#N)n1 [Example 13, 7-amino-5-((2-(6-methylpyridin-2-yl)ethyl)amino)-2,3-dimethylpyrazolo[1,5-a]pyrimidine-6-carbonitrile] | 3.4 | did not show significant change in tumor volume | 35 | 35 | 48 | 32 | 1350 | 30 | significant increase
2 | CCc1c(C)nn2c(N)c(C#N)c(NCCc3ccn(C4(CO)CC4)n3)nc12 [Example 39, 7-amino-3-ethyl-5-((2-(1-(1-(hydroxymethyl)cyclopropyl)-1H-pyrazol-3-yl)ethyl)amino)-2-methylpyrazolo[1,5-a] pyrimidine-6-carbonitrile] | 0.94 |  |  |  |  |  |  |  | 
